Measured values taken from patent publication US10016382B2, “Method for decreasing skeletal muscle damage and/or oxidative stress in mammals” (LONZA INC., priority 2014, dated 2018).

Assays:
[1] = test system: Thiobarbituric acid reactive substances (TBARS); experiment: Serum TBARS, Example 2 part one; type: in vivo, dog; conditions: for TBARS level, serum: Ex.2 part one, 250 mg/d; for TBARS: serum
Method: Twenty-four hours after test dogs ran the last 15 mile endurance run, serum samples were taken to evaluate biomarkers for muscle damage and antioxidant status. Blood samples were taken 1) just prior to the beginning of the study; 2) 1 day prior to running the final 15 mile run on the 14th week; 3) 1 hour immediately following the 15 mile run; and 4) 24 hours following the final 15 mile run. After a blood sample was drawn, it was allowed to clot for 30 minutes at 25° C. before being centrifuged for 15 minutes at 2000 g at 4° C. Serum was aliquoted into 0.65 mL microcentrifuge tubes and stored at −80° C. until being assayed at the end of the study for creatine kinase, canine myoglobin, thiobarbituric acid reactive substances (TBARS), and total antioxidant capacity (TAC) using the commercially available kits described in Example 1.

[2] = Food offered and food consumption (per day, per kg BW, per kg lean mass), Example 2 part one; type: in vivo, dog
Method: The performance dogs were weighed at the beginning of the study and at one week intervals until the end of part one. Feed consumption and refusals were determined daily by weighing and recording the amount offered or refused. The quantity of food provided to each dog on a daily basis was adjusted based on the goal of maintaining the dog's minimum body weight throughout the study. The consumption per kg of lean mass was determined by dividing the mean lean mass of each group into its mean daily food consumption value at the initial and then the final body scans.

[3] = Ex.2 part one, 250 mg/d, 14 week study
[4] = Ex.2 part one, 250 mg/d, week 1

Compound: C[N+](C)(C)C[C@H](O)CC(=O)[O-] [L-carnitine]
- TBARS level, serum ([1]; post-run 1 hr, MDA): 16.45 µM
- TBARS level, serum ([1]; prior to the 15 mile endurance run): 15.36 μM malondialdehyde (MDA)
- TBARS ([1]; FEMALES, Baseline): 13.03 ± 1.29 μM MDA
- TBARS ([1]; FEMALES, Post-Run 1 Hr): 17.44 ± 2.26 μM MDA
- TBARS ([1]; FEMALES, Post-Run 24 Hr): 26.01 ± 3.09 μM MDA
- TBARS ([1]; FEMALES, Pre-Run): 16.68 ± 2.16 μM MDA
- TBARS ([1]; MALES, Baseline): 14.51 ± 1.38 μM MDA
- TBARS ([1]; MALES, Post-Run 1 Hr): 15.46 ± 1.79 μM MDA
- TBARS ([1]; MALES, Post-Run 24 Hr): 19.62 ± 2.38 μM MDA
- TBARS ([1]; MALES, Pre-Run): 14.03 ± 2.24 μM MDA
- TBARS ([1]; Whole Groups, Baseline): 13.77 ± 0.94 μM MDA
- TBARS ([1]; Whole Groups, Post-Run 1 Hr, Post-Run 1 Hr): 16.45 ± 1.43 μM MDA
- TBARS ([1]; Whole Groups, Post-Run 24 Hr, Post-Run 24 Hr): 22.81 ± 2.01 μM MDA
- TBARS ([1]; Whole Groups, Pre-Run): 15.36 ± 1.55 μM MDA
- Mean Food Intake Over 14 wk Duration/Lean Mass ([2]; Change, F): −2.46 g/d/kg Lean Mass
- Mean Food Intake Over 14 wk Duration/Lean Mass ([2]; Change, M): −1.98 g/d/kg Lean Mass
- Overall mean amount of food offered per day [2, 3]: 677 g/day
- Overall mean food intake per day [2, 3]: 574 g/day
- Mean food intake per kg lean mass ([2]; Ex.2 part one, 250 mg/d, Final body composition scan): 24.02 g/d/kg LM
- Mean food intake per kg lean mass ([2]; Ex.2 part one, 250 mg/d, Initial body composition scan): 26.24 g/d/kg LM
- Change in mean food intake per kg lean mass ([2]; Ex.2 part one, 250 mg/d, final minus initial over 14 wks): −2.22 g/d/kg LM
- Amount of food consumed [2, 4]: 618.25 g/day
- Food consumption per kg body weight [2, 4]: 20.96 g/d/kg BW
- Intake of kcals of ME [2, 4]: 83.83 kcal/d/kg BW
- Amount of food consumed ([2]; Ex.2 part one, 250 mg/d, week 4): 629.43 g/day
- Mean Food Intake Over 14 wk Duration/Lean Mass ([2]; Final, F): 27.46 g/d/kg Lean Mass
- Mean Food Intake Over 14 wk Duration/Lean Mass ([2]; Final, M): 20.58 g/d/kg Lean Mass
- Mean Food Intake Over 14 wk Duration/Lean Mass ([2]; Initial, F): 29.92 g/d/kg Lean Mass
- Mean Food Intake Over 14 wk Duration/Lean Mass ([2]; Initial, M): 22.56 g/d/kg Lean Mass
- Daily Food Intake ([2]; Week 1): 618.25 ± 22.33 g
- Daily Food Intake (ME) ([2]; Week 1): 83.83 ± 1.85 kcal ME/d/kg BW
- Daily Food Intake per kg BW ([2]; Week 1): 20.96 ± 0.46 g/d/kg BW
- Daily Food Intake ([2]; Week 2): 608.79 ± 22.8 g
- Daily Food Intake (ME) ([2]; Week 2): 85.21 ± 2.22 kcal ME/d/kg BW
- Daily Food Intake per kg BW ([2]; Week 2): 21.3 ± 0.55 g/d/kg BW
- Daily Food Intake ([2]; Week 3): 600.54 ± 19.89 g
- Daily Food Intake (ME) ([2]; Week 3): 82.87 ± 2.34 kcal ME/d/kg BW
- Daily Food Intake per kg BW ([2]; Week 3): 20.72 ± 0.58 g/d/kg BW
- Daily Food Intake ([2]; Week 4): 629.43 ± 21.4 g
- Daily Food Intake (ME) ([2]; Week 4): 86.54 ± 2.08 kcal ME/d/kg BW
- Daily Food Intake per kg BW ([2]; Week 4): 21.64 ± 0.52 g/d/kg BW
- Daily Food Intake ([2]; Week 5): 597.07 ± 18.65 g
- Daily Food Intake (ME) ([2]; Week 5): 81.86 ± 1.82 kcal ME/d/kg BW
- Daily Food Intake per kg BW ([2]; Week 5): 20.47 ± 0.45 g/d/kg BW
- Daily Food Intake ([2]; Week 6): 579.11 ± 21.17 g
- Daily Food Intake (ME) ([2]; Week 6): 78.87 ± 2.06 kcal ME/d/kg BW
- Daily Food Intake per kg BW ([2]; Week 6): 19.72 ± 0.51 g/d/kg BW
- Daily Food Intake ([2]; Week 7): 584.5 ± 18.91 g
- Daily Food Intake (ME) ([2]; Week 7): 79.61 ± 1.97 kcal ME/d/kg BW
- Daily Food Intake per kg BW ([2]; Week 7): 19.91 ± 0.49 g/d/kg BW
- Daily Food Intake ([2]; Week 8): 547.14 ± 20.91 g
- Daily Food Intake (ME) ([2]; Week 8): 74.21 ± 2.16 kcal ME/d/kg BW
- Daily Food Intake per kg BW ([2]; Week 8): 18.55 ± 0.54 g/d/kg BW
- Daily Food Intake ([2]; Week 9): 602.79 ± 23.4 g
- Daily Food Intake (ME) ([2]; Week 9): 81.55 ± 2.2 kcal ME/d/kg BW
- Daily Food Intake per kg BW ([2]; Week 9): 20.39 ± 0.55 g/d/kg BW
- Daily Food Intake ([2]; Week 10): 580.04 ± 21.88 g
- Daily Food Intake (ME) ([2]; Week 10): 78.76 ± 2.25 kcal ME/d/kg BW
- Daily Food Intake per kg BW ([2]; Week 10): 19.69 ± 0.56 g/d/kg BW
- Daily Food Intake ([2]; Week 11): 543.89 ± 19.79 g
- Daily Food Intake (ME) ([2]; Week 11): 73.79 ± 2.09 kcal ME/d/kg BW
- Daily Food Intake per kg BW ([2]; Week 11): 18.45 ± 0.52 g/d/kg BW
- Daily Food Intake ([2]; Week 12): 493.68 ± 19.06 g
- Daily Food Intake (ME) ([2]; Week 12): 66.64 ± 1.71 kcal ME/d/kg BW
- Daily Food Intake per kg BW ([2]; Week 12): 16.66 ± 0.43 g/d/kg BW
- Daily Food Intake ([2]; Week 13): 511.82 ± 22.64 g
- Daily Food Intake (ME) ([2]; Week 13): 68.71 ± 2.06 kcal ME/d/kg BW
- Daily Food Intake per kg BW ([2]; Week 13): 17.18 ± 0.51 g/d/kg BW
- Daily Food Intake ([2]; Week 14): 543.5 ± 26.43 g
- Daily Food Intake (ME) ([2]; Week 14): 73.21 ± 2.75 kcal ME/d/kg BW
- Daily Food Intake per kg BW ([2]; Week 14): 18.3 ± 0.69 g/d/kg BW
